This is an account of results in US11136301B2, “Broad spectrum antiviral compounds and uses thereof” (The Regents Of The University Of California, priority 2015, dated 2021).

“Also recorded” adds a separate entry of the source. Like-named read-outs stand apart in the source and are kept apart here.

The subject of assay [1] is wild-type HIV-1 (HIV-1LAI) in H9 cells (non-permissive). The assay is described as follows: microbe, parasite or virus in culture. To be noted: for viral replication (reverse transcriptase activity): 15 days. In kind it is cell-based.
For assay [2], the system named is wild-type HIV-1 (HIV-1LAI) in MT-4 cells (permissive). To be noted: 100 μM; cited from earlier work.
In assay [3] the test system is HSP90. The assay can be described thus: ViTAP (Vif inhibitor Target Affinity Purification): streptavidin affinity purification of compound-bound proteins. The class given is binding. To be noted: competitive binding, 0-30 μM competitor, 293FT cells.
In assay [4] the test system is wild-type HIV-1 (HIV-1LAI) in H9 cells (non-permissive). Conditions: earlier finding on RN-18; cited from earlier work.
Assay [5] relates to APOBEC3G, Vif and cellular Hsp90 substrates (AKT, HER2). The assay can be described thus: Western blot of viral and cellular proteins in 293T cells co-transfected with HIV-1 (pLAI2) and HA-tagged APOBEC3G. In kind it is cell-based. Conditions: 50 μM, 24 h. As for the experimental part:
FIG. 13. […] 293T cells were co-transfected with HIV-1 (pLAI2) and HA-tagged APOBEC3G vectors and cultured for 24 h in the presence (+) or absence (−) of 50 μM RN-18. Cell lysates were collected and used for Western blot analysis with antibodies against the viral and cellular proteins indicated. Levels of cellular GAPDH were used as a loading control.
Both RN-18 and 17-AAG interact with HSP90 in Cul5 mediated E3 ligase complex. […] Cell lysates were prepared and various viral and cellular protein levels were analyzed by immunoblotting (FIG. 13). Levels of cellular GAPDH were used as loading controls.

Assay [6] deals with wild-type HIV-1 (HIV-1LAI) in MT-4 cells (permissive). The assay is described as follows: Antiviral activity assay: wild-type HIV-1 in permissive MT4 cells, reverse transcriptase activity in culture supernatants. The class given is cell-based. To be noted: wild-type HIV-1, permissive MT4 cells, read-out: Antiviral activity (IC50 μM) MT4 cells.
Assay [7] deals with HIV-1 in CEM cells. Conditions: CEM cells (non-permissive); cited from earlier work.

Turning to `COc1ccccc1NC(=O)c1ccccc1Sc1ccc([N+](=O)[O-])cc1` [RN-18, N-(2-methoxyphenyl)-2-((4-nitrophenyl)thio)benzamide], the “viral replication (reverse transcriptase activity)” value in assay [1] (HSP90 knockdown H9 cells) is “no effect”; in assay [1] (shNT control H9 cells), “inhibited viral replication”. The IC50 in assay [1] (Human immunodeficiency virus 1, H9, read-out: Antiviral activity (IC50 μM) H9 cells, Table 1, wild-type HIV-1, non-permissive H9 cells) was 6 µM; in assay [1] (Human immunodeficiency virus 1, H9, read-out: Antiviral activity (IC50 μM) H9 cells, Table 3, wild-type HIV-1, non-permissive H9 cells) it was 6 µM; in assay [1] (Human immunodeficiency virus 1, H9, read-out: IC50, anti-HIV-1 activity, non-permissive H9 cells), 6 µM; in assay [4] it was 6 µM; in assay [6] (Human immunodeficiency virus 1, MT4, Table 1), > 50 µM; in assay [6] (Human immunodeficiency virus 1, MT4, Table 3) it was > 50 µM. Further, the IC50 in assay [7] is 4.5 µM. Besides, the “activity in MT4 cell line” value in assay [2] is recorded as “does not show any activity; also recorded: does not inhibit viral infectivity”. Besides, in assay [3], the “inhibition of IMA82 (25 μM) binding to FLAG-tagged HSP90” value is “dose-dependently inhibited”. For the same compound, the “levels of cellular Hsp90 substrates (AKT and HER2)” value in assay [5] was “no effect on AKT and HER2 levels; also recorded: does not affect the levels of cellular Hsp90 substrates”. Also, the A3G level entry in assay [5] (HIV-1 (pLAI2) and HA-A3G) is “restored A3G; also recorded: specifically restores APOBEC3G”. Also, the Vif level entry in assay [5] (HIV-1 (pLAI2) and HA-A3G) is listed as “enhanced degradation of Vif”.
